Measured values as given in ChEMBL document CHEMBL4507292 (2021).

Columns and labels:
[1] = molecular target: Substance-K receptor (Homo sapiens) (UniProt P21452); experiment: Inhibition of Tachykinin NK2 at 10 µM in the Eurofins-Panlabs radioligand binding assay (Eurofins_assay_255600); design: ligand concentration 0.5 nM; details: Compound concentration 10.0 uM
Phosphodiesterase 3 = Phosphodiesterase 3 (Homo sapiens, UniProt Q14432+Q13370); experiment: Inhibition of Phosphodiesterase PDE3 at compound concentration of 10.0 uM in the Eurofins-Panlabs enzyme assay (Eurofins_assay_152000); assay type: protein assay; design: substrate with concentration 1.01 uM [3H] cAMP + cAMP, incubation time 20 min, incubation temperature 25 C
Homo sapiens = organism: Homo sapiens; experiment: Calcitonin Gene-Related Peptide CGRP1 Eurofins-Panlabs radioligand binding assay; assay type: protein-complex assay; details: Compound concentration 10.0 uM
[2] = molecular target: T1, Prostaglandin G/H synthase 2 (Homo sapiens) (UniProt P35354); experiment: (§1) Inhibition of Cyclooxygenase COX-2 at compound concentration of 10.0 uM in the Eurofins-Panlabs enzyme assay (Eurofins_assay_118010); design: substrate with concentration 0.3 uM Arachidonic acid, incubation time 15 min, incubation temperature 37 C
T1 sequence (whole entry): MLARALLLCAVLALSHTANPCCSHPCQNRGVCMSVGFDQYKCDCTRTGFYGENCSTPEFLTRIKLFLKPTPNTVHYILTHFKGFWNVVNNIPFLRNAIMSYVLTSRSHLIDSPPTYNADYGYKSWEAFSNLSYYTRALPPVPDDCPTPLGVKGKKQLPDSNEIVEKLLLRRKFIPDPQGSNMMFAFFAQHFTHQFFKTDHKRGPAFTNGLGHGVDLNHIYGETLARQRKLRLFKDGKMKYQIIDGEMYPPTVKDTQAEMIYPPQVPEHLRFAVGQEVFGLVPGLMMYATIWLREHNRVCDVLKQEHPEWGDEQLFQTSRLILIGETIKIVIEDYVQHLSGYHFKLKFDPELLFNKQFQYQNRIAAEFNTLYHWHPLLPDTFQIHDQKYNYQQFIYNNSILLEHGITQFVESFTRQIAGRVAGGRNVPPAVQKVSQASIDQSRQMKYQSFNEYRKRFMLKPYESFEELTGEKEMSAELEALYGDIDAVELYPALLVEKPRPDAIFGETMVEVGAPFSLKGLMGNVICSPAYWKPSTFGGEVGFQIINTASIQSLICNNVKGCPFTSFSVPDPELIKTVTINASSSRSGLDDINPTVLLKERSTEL

[3] = molecular target: Prostaglandin G/H synthase 2 (Homo sapiens, UniProt P35354); experiment: as §1; design: substrate with concentration 0.3 uM Arachidonic acid, incubation time 15 min, incubation temperature 37 C
[4] = molecular target: 5-hydroxytryptamine receptor 2A (Homo sapiens) (UniProt P28223); details: Compound concentration 10.0 uM
[5] = molecular target: Neurotensin receptor type 1 (Homo sapiens, UniProt P30989); experiment: Neurotensin NT1 Eurofins-Panlabs radioligand binding assay; design: ligand concentration 0.02 nM, non-specific ligand with concentration 1 µM Neurotensin, incubation time 45 min, incubation temperature 25 °C
Neurotensin receptor type 1, sequence (P30989 whole entry): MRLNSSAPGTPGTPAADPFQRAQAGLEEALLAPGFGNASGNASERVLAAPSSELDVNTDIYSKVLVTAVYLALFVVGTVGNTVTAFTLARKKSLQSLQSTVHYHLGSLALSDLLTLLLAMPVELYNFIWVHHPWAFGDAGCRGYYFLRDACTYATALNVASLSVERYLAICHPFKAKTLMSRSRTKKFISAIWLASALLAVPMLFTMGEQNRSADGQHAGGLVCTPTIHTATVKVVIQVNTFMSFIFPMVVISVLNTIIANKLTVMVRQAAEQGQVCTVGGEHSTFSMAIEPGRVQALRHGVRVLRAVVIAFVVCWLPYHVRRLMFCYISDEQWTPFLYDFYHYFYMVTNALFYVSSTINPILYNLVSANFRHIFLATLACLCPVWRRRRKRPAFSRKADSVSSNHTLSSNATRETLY

[6] = molecular target: Vasopressin V2 receptor (Homo sapiens) (UniProt P30518); experiment: Vasopressin V2 Eurofins-Panlabs radioligand binding assay; design: ligand concentration 0.5 nM; details: Compound concentration 10.0 uM
Vasopressin V2 receptor (Homo sapiens), sequence (P30518 whole entry): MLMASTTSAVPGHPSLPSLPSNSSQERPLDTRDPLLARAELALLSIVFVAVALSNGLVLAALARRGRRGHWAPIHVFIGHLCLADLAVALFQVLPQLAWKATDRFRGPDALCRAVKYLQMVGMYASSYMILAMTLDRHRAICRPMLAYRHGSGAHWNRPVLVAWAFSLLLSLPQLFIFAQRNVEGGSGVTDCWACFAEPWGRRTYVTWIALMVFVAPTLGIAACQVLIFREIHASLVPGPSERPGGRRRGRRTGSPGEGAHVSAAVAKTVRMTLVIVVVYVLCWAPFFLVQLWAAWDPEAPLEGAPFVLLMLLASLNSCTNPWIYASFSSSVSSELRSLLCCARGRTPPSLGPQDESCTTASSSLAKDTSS

[7] = molecular target: Galanin receptor type 1 (Homo sapiens) (UniProt P47211); experiment: Galanin GAL1 Eurofins-Panlabs radioligand binding assay; details: Compound concentration 10.0 uM
[8] = molecular target: Histamine H2 receptor (Homo sapiens) (UniProt P25021)
Histamine H2 receptor (Homo sapiens), sequence (P25021 whole entry): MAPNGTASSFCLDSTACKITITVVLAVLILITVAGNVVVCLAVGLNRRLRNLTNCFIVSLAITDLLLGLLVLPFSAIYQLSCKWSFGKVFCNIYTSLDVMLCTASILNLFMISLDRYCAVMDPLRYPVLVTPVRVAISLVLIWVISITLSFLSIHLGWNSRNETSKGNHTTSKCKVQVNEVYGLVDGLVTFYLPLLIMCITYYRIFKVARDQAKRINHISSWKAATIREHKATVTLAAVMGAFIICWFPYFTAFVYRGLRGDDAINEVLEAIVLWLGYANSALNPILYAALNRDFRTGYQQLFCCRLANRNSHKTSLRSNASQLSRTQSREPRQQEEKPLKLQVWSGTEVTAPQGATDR

[9] = molecular target: Beta-3 adrenergic receptor (Homo sapiens, UniProt P13945); experiment: Inhibition of Adrenergic beta3 at compound concentration of 10.0 uM in the Eurofins-Panlabs radioligand binding assay (Eurofins_assay_204200); design: ligand concentration 0.5 nM, non-specific ligand with concentration 1000 uM Alprenolol, incubation time 90 min, incubation temperature 25 C
Beta-3 adrenergic receptor, sequence (P13945 whole entry): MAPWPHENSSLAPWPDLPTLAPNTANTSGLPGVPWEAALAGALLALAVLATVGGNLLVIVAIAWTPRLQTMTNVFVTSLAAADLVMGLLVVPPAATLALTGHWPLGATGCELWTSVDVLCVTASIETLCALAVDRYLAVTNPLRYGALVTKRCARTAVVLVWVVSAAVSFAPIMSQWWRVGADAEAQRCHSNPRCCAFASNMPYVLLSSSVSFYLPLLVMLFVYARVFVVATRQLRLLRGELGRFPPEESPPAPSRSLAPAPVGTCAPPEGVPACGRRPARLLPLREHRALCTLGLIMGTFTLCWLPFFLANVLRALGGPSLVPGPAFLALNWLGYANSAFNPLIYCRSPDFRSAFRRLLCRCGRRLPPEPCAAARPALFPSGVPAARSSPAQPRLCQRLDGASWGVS

[10] = molecular target: Tyrosine 3-monooxygenase (Homo sapiens) (UniProt P07101); experiment: Tyrosine Hydroxylase Eurofins-Panlabs enzyme assay; design: substrate with concentration; details: Rattus norvegicus; Compound concentration 10.0 uM
Tyrosine 3-monooxygenase (Homo sapiens), sequence (P07101 whole entry): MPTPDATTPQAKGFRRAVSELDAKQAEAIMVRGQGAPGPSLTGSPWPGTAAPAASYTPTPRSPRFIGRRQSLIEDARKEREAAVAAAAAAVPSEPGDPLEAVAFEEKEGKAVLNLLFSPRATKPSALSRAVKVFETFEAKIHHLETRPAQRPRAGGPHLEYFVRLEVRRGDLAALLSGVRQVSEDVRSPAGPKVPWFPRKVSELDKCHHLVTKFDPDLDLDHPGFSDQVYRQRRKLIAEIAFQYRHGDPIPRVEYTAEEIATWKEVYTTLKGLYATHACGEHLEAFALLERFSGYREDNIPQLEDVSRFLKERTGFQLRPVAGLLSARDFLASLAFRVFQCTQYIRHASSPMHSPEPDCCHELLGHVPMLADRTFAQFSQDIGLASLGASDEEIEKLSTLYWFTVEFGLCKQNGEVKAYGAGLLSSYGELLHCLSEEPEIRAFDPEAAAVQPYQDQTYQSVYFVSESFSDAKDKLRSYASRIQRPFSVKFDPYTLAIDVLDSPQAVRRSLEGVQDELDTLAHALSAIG

[11] = molecular target: T2, 5-hydroxytryptamine receptor 3A (Homo sapiens) (UniProt P46098); experiment: Inhibition of Serotonin (5-Hydroxytryptamine) 5-HT3 at 10 µM in the Eurofins-Panlabs radioligand binding assay (Eurofins_assay_271910); design: ligand concentration 0.69 nM; details: Compound concentration 10.0 uM
T2 sequence (whole entry): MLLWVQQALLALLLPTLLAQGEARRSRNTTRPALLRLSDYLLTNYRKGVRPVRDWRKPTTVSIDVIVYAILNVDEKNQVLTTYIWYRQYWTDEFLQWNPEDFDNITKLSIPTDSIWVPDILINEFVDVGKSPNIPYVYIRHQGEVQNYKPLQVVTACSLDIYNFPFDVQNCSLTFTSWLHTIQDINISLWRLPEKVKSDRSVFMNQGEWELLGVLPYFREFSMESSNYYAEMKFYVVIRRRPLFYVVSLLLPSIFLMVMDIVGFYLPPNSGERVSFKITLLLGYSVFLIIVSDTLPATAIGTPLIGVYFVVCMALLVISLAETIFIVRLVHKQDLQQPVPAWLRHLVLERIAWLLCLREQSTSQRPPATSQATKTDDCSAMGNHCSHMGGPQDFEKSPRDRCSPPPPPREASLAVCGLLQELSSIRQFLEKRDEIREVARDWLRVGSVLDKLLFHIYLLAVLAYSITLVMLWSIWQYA

[12] = molecular target: Adenosine receptor A2a (Homo sapiens) (UniProt P29274); details: Compound concentration 10.0 uM
Adenosine receptor A2a (Homo sapiens), sequence (P29274 whole entry): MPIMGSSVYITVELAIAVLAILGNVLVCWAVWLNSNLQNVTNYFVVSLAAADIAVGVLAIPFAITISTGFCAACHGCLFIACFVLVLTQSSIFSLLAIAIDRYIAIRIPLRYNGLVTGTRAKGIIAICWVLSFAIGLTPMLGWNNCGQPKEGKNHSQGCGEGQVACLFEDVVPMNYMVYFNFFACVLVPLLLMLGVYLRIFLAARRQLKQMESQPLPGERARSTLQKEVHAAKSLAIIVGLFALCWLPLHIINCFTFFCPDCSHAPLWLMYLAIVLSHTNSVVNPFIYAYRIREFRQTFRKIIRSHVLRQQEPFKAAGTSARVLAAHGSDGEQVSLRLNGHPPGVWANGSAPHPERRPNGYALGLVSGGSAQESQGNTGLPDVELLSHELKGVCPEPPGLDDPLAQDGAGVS

[13] = molecular target: Vasoactive intestinal polypeptide receptor 1 (Homo sapiens) (UniProt P32241); experiment: Inhibition of Vasoactive Intestinal Peptide VIP1 at 10 µM in the Eurofins-Panlabs radioligand binding assay (Eurofins_assay_287010); details: Compound concentration 10.0 uM
Vasoactive intestinal polypeptide receptor 1 (Homo sapiens), sequence (P32241 whole entry): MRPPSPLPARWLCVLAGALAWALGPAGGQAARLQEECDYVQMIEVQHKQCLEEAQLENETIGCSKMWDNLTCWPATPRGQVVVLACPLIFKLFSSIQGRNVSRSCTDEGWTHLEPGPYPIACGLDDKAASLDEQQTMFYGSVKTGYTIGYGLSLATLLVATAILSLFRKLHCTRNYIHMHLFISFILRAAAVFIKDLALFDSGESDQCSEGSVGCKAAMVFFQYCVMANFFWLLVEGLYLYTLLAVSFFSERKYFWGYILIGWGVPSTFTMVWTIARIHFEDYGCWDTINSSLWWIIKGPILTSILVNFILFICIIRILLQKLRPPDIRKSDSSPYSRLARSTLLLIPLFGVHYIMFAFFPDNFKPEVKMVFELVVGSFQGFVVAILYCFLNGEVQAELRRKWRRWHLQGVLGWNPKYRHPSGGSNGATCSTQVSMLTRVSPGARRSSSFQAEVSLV

Caspase-1 (Homo sapiens) = Caspase-1 (Homo sapiens) (UniProt P29466); experiment: Inhibition of Peptidase, CASP1 (Caspase 1) at 10 µM in the Eurofins-Panlabs enzyme assay (Eurofins_assay_163000); details: Compound concentration 10.0 uM
[14] = molecular target: Endothelin-1 receptor (Homo sapiens) (UniProt P25101); details: Compound concentration 10.0 uM
[15] = molecular target: Peroxisome proliferator-activated receptor alpha (Homo sapiens) (UniProt Q07869); experiment: PPARalpha Eurofins-Panlabs radioligand binding assay; details: Compound concentration 10.0 uM
Peroxisome proliferator-activated receptor alpha (Homo sapiens), sequence (Q07869 whole entry): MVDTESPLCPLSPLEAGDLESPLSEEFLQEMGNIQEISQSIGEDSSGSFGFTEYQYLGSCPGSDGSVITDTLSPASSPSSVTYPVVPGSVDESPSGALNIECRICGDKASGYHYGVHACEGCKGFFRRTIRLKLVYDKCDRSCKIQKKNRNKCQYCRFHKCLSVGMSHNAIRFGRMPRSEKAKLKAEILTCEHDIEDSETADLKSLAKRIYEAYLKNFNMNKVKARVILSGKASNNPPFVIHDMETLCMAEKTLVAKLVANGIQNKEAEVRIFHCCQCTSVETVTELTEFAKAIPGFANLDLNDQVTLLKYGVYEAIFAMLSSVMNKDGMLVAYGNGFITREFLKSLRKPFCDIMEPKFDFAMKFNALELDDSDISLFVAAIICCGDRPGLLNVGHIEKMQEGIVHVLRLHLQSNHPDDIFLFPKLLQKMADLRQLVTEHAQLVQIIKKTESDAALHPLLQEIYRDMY

Rattus norvegicus = organism: Rattus norvegicus; experiment: Inhibition of Glutamate, NMDA, Phencyclidine at 10 µM in the Eurofins-Panlabs radioligand binding assay (Eurofins_assay_233000); assay type: protein-complex assay
[16] = molecular target: Kappa-type opioid receptor (Homo sapiens, UniProt P41145); experiment: Inhibition of Opiate kappa (OP2, KOP) at compound concentration of 10.0 uM in the Eurofins-Panlabs radioligand binding assay (Eurofins_assay_260210); design: ligand concentration 0.6 nM, non-specific ligand with concentration 10 uM Naloxone, incubation time 60 min, incubation temperature 25 C
Kappa-type opioid receptor, sequence (P41145 whole entry): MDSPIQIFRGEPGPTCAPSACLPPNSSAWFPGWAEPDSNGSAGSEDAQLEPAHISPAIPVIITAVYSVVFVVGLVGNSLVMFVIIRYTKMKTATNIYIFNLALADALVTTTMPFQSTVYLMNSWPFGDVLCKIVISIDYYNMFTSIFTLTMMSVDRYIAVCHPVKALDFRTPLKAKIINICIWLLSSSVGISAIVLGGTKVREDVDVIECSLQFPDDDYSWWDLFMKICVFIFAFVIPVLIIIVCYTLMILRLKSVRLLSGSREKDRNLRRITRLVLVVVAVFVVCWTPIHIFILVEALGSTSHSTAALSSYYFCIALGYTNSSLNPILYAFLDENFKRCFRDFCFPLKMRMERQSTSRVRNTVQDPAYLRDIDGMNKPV

[17] = molecular target: Adenosine receptor A1 (Homo sapiens) (UniProt P30542); details: Compound concentration 10.0 uM
Adenosine receptor A1 (Homo sapiens), sequence (P30542 whole entry): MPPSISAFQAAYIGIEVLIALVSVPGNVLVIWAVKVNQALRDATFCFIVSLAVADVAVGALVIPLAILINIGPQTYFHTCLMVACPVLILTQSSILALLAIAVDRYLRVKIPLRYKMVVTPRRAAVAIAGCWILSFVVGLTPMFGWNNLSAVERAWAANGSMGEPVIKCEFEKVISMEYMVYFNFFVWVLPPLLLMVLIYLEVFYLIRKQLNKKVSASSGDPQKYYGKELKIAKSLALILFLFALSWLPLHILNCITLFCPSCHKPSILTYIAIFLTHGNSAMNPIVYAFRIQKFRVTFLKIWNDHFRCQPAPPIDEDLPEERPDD

[18] = molecular target: Melanocortin receptor 3 (Homo sapiens) (UniProt P41968); experiment: Inhibition of Melanocortin MC3 at 10 µM in the Eurofins-Panlabs radioligand binding assay (Eurofins_assay_251300); design: ligand concentration 0.035 nM; details: Compound concentration 10.0 uM
Melanocortin receptor 3 (Homo sapiens), sequence (P41968 whole entry): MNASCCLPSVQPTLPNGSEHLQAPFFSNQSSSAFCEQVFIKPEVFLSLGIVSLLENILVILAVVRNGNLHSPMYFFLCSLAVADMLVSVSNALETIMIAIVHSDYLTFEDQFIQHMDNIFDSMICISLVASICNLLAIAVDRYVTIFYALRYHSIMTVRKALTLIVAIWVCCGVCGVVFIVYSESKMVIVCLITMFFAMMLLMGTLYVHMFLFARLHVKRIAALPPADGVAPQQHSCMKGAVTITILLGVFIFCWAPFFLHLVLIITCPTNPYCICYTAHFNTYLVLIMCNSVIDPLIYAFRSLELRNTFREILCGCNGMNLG

Oryctolagus cuniculus = organism: Oryctolagus cuniculus; experiment: Inhibition of Purinergic P2X at 10 µM in the Eurofins-Panlabs radioligand binding assay (Eurofins_assay_268700); assay type: protein assay; details: Compound concentration 10.0 uM

Substance-K receptor (Homo sapiens), sequence (P21452 whole entry): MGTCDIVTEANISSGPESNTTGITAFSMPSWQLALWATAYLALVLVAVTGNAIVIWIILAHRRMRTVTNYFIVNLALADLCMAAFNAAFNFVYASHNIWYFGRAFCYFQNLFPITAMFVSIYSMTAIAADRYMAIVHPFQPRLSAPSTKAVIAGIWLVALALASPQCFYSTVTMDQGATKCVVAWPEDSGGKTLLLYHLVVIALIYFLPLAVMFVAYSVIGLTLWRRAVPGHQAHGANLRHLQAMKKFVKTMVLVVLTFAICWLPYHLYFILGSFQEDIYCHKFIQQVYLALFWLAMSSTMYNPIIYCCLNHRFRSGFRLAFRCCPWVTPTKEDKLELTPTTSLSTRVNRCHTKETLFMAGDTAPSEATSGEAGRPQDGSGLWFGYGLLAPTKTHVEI

In the case of `O=C(O)c1cc(-c2ccc(C3CCNCC3)cc2)c2ccc(-c3ccc(C(F)(F)F)cc3)cc2c1` [PPTN], the inhibition [1] is reported as 26%, the IC50 (Phosphodiesterase 3) is reported as 51.5 µM and the inhibition (Phosphodiesterase 3; Compound concentration 0.1 uM) is reported as -7%. It also gave an inhibition (Phosphodiesterase 3; Compound concentration 1.0 uM) of 4%, an inhibition (Phosphodiesterase 3; Compound concentration 10.0 uM) of 28% and an inhibition (Phosphodiesterase 3; Compound concentration 100.0 uM) of 59%. For the same compound, the inhibition (Homo sapiens) was 26%, the inhibition ([2]; Compound concentration 0.01 uM) was -3% and the inhibition ([2]; Compound concentration 0.1 uM) was 0%. The inhibition ([2]; Compound concentration 1.0 uM) was -1%, the inhibition ([2]; Compound concentration 10.0 uM) was 70% and the IC50 [3] was 8.71 µM. It also gave an inhibition [4] of 42%, an IC50 [5] of 8.66 µM and a Ki [5] of 6.97 µM. The inhibition ([5]; Compound concentration 0.01 uM) was 11%, the inhibition ([5]; Compound concentration 0.1 uM) was 10% and the inhibition ([5]; Compound concentration 1.0 uM) was -9%. For the same compound, the inhibition ([5]; Compound concentration 10.0 uM) was 69%, the inhibition [6] was 28% and the inhibition [7] was 19%. It also gave an inhibition ([8]; Compound concentration 0.01 uM) of 9%, an inhibition ([8]; Compound concentration 0.1 uM) of 4% and an inhibition ([8]; Compound concentration 1.0 uM) of 7%. The inhibition ([8]; Compound concentration 10.0 uM) was 101%, the IC50 [9] was 9.61 µM and the Ki [9] was 7.2 µM. It also gave an inhibition [10] of -3%, an inhibition [11] of 8% and an inhibition [12] of 38%. It also gave an inhibition [13] of 3%, an inhibition (Caspase-1 (Homo sapiens)) of -1% and an inhibition [14] of 6%. It also gave an inhibition [15] of 15%, an inhibition (Rattus norvegicus) of 17% and an IC50 [16] of 8.03 µM. The Ki [16] was 3.21 µM, the inhibition [17] was -2% and the inhibition [18] was 34%. It also gave an inhibition (Oryctolagus cuniculus) of 14%.
